Laboratory results published in PMC4539082 (Drug Design, Development and Therapy, 2015).
Each block holds one compound with its values, some of them ahead of it.

Assays:
Half-life in dog = format: in vivo
[1] = patients; cited from earlier work
PDX of melanoma = conditions: cited from earlier work
Half-life in rat = format: in vivo
Half-life in mice = conditions: mouse, in vivo
MDAPCa2b and PC-3 = conditions: cited from earlier work
NIH3T3 = experiment: Growth inhibition in mouse fibroblasts; format: cell-based; conditions: read-out: NIH3T3, IC50; Mean values ± SEM for a minimum of three determinations (n); data on file
lung fibrosis = conditions: administration before, during, and after radiation treatment; cited from earlier work
p3TP Lux mink lung cells = experiment: TGF-β-dependent luciferase assay in mink lung cells; format: cell-based; conditions: read-out: p3TP lux, IC50; Mean values ± SEM for a minimum of three determinations (n); data on file
NSCLC cell lines = conditions: cited from earlier work
[2] = test system: cell lines that had no T790M mutation; conditions: cell lines without T790M mutation; cited from earlier work
p38MAPK = p38MAPK (Homo sapiens, UniProt Q16539); experiment: p38MAPK inhibition, single-point determination; format: biochemical; conditions: read-out: p38MAPK, IC50, data on file
TGF-βR-I kinase domain = target: T1, TGF-βR-I kinase domain (Homo sapiens, UniProt P36897, T204D); experiment: Ki of Eli Lilly TGF-β SMIs; format: biochemical; conditions: data on file, Eli Lilly and Company
T1 sequence (P36897 148-503 T204D limits assumed): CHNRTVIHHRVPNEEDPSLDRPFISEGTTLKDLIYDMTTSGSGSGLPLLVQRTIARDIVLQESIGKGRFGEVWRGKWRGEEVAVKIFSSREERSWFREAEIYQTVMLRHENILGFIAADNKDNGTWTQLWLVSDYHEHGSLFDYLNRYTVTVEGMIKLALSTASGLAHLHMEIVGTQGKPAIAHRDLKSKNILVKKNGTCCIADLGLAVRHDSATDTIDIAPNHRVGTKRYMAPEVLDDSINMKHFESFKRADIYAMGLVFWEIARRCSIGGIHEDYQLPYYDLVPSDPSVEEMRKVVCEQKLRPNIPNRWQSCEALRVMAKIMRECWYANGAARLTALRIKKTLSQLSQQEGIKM

[3] = test system: pSMAD2 in glioblastoma cell lines; conditions: lomustine by itself; cited from earlier work
[4] = 13 patients, 3 mg/kg every 21 days; cited from earlier work
[5] = one patient with malignant melanoma; doses up to 15 mg/kg; cited from earlier work

p38MAPK, sequence (Q16539 whole entry, the tested form may be a part): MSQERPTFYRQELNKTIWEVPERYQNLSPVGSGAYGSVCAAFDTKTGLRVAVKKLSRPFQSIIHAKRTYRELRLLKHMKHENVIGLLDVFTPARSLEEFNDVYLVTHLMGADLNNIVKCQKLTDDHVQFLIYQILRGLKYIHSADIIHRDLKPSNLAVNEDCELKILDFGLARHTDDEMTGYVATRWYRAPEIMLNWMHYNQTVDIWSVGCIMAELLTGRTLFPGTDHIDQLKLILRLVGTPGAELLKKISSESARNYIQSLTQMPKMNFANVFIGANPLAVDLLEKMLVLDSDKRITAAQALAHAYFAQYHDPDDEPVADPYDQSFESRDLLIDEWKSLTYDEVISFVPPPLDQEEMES

Compound: Cc1cccc(-c2nn3c(c2-c2ccnc4ccc(C(N)=O)cc24)CCC3)n1 [Galunisertib (LY2157299)]
half-life (Half-life in dog; dog, in vivo): 136 min
drug-related Grade 3/4 toxicities [1]: < 5%
pSMAD2 (PDX of melanoma; PDX of melanoma): inhibited
growth inhibitory effect (PDX of melanoma; standard tumor colony assay, melanoma PDX): no growth inhibitory effect
half-life (Half-life in rat; rat, in vivo): 31.8 min
half-life (Half-life in mice): 18 min

Compound: O=NN(CCCl)C(=O)NC1CCCCC1 [lomustine]
pSMAD2 [3]: reduced pSMAD2

Compound: fresolimumab: pan-TGF-β ligand monoclonal antibody
radiographic responses [4]: None of the patients had radiographic responses
duration of partial response [5]: 44.4 weeks

The next lines start with results.

Half-life mean (Half-life in dog; Dog, data on file): 1 to 2 h
IC50 (p3TP Lux mink lung cells): 180 ± 93 nM
Half-life mean (Half-life in rat; Rat, data on file): 1.8 h
Compound: c1ccc(-c2nn3c(c2-c2ccnc4cc(OCCN5CCOCC5)ccc24)CCC3)nc1 [LY2109761]
antitumor activity, bone metastasis (MDAPCa2b and PC-3): inhibiting bone metastasis
IC50 (NIH3T3): 210 ± 170 nM
lung fibrosis (lung fibrosis): inhibited lung fibrosis
metastatic spread (NSCLC cell lines): reduced metastatic spread

IC50 (p3TP Lux mink lung cells): 47 ± 16 nM
IC50 (p38MAPK): 740 nM
Compound: c1ccc(-c2[nH]ncc2-c2ccnc3ccccc23)nc1 [LY364947]
IC50 (NIH3T3): 89 ± 10 nM
EGFR resistance [2]: able to overcome the EGFR resistance

Ki (TGF-βR-I kinase domain): 37 nM
IC50 (p3TP Lux mink lung cells): 96 ± 16 nM
IC50 (p38MAPK): > 20000 nM
Compound: Cc1cccc(-c2nn3c(c2-c2ccc(F)cc2)CCC3)n1 [LY580276]
IC50 (NIH3T3): 339 ± 349 nM
